Where two headings read alike, the source gives them in different places. Residues, ends and D or L forms follow the SMILES beside them.
How the values were obtained:
[1] = patient three
Experimental: Oral administration of HEP1 solution containing 10 mg HEP1 was started on day 2 of the trial and continued until day 22. Further Blood samples were taken for analysis on day 7, day 14, day 21 and day 28 of the trial (7 days after the last dose of HEP1).

HIV = assay: Cellular TCID Assay on PBMC of HIV infected patient given HEP1; assay type: in vivo; conditions: patient three; for TCID, normalised data (day 1 = 100): oral HEP1 10 mg daily day 2-22
Experimental: (§1) The objective of this study was to determine in an HIV infected patient if the induction of immunological tolerance to HEP1 could reduce immune activation and HIV infection. The design of the first clinical experiment was to orally administer HEP1 to the patient in daily 10 mg doses (the lower end of the preferred dose range). This was then followed approximately three months later with a subcutaneous administration of HEP1 at a higher dose of 140 mg. To assess the therapeutic benefit of HEP1, the following disease progression markers were measured by taking blood samples before, during and after each trial and determining: HIV levels by a p24 antigen assay, HIV infectivity by a cellular TCID assay and immune activation by quantitating levels of various lymphocytes.
Cellular TCID is a technique that measures the relative amount of viral load within cells. Within four hours of a sample being taken from the HIV infected patient, 10^6 viable PBMC from the sample were obtained by centrifugation of the anticoagulated blood over Ficoll-Hypaque lymphocyte separation medium. A serial dilution of the patients cells was set up in a 24 well plate in decreasing amounts (1:1, 1:4, 1:16, 1:64 and 1:256 and a negative control using 0.9 ml special media (RPMI-1640) supplemented with 15% fetal calf serum and 10% interleukin 2. Infected cells were then cocultivated with 10^6 PBMC derived from an uninfected human donor that had been stimulated for 24-48 hours with phytohaemagglutin (PHA) to activate the cells to make them susceptible to infection by HIV. The cocultures were subsequently monitored for the presence of p24 antigen in the supernatant fluid twice weekly for up to 14 days, during this period the plates were spun on days 4,7,11 and 14 and then a 50% medium change was performed. […]
(§2) The following markers of HIV disease progression were assayed: p24Ag (the concentration of HIV p24 protein in picogram/ml in the blood), TCID (the infectivity of the HIV in the cells of blood sample measured by an in vitro cell culture assay in which a serial dilution of the sample was mixed with activated uninfected PBMC and the level of HIV infection determined by p24Ag assay), total white count (immune activation measured by the number of white cells per mm^3), CD4 (the number of CD4 positive cells per mm^3), CD8 (the number of CD8 positive cells per mm^3), NK (the number of Natural Killer cells per mm^3), Lymphocytes (the number of cells per mm^3), Monocytes (the number of cells per mm^3), and Granulocytes (the number of cells per mm^3). Normalised data was calculated by dividing each data point by the value of its data series on day 1 of the trail and multiplying by 100.

HIV p24 antigen = assay: p24Ag Assay on blood samples of HIV infected patient given HEP1; assay type: in vivo; conditions: patient three
Experimental: as §1
p24Ag is a marker of HIV infection as well as a predictor of HIV disease progression. The p24Ag assay measures p24 antigen from the core of HIV and is an immunoassay using murine monoclonal antibody coated onto microwell strips. The assay detects HIV in plasma, serum or tissue culture medium. If present, the antigen binds to the antibody-coated microwells. The bound antigen is recognised by biotinylated antibodies to HIV which react with conjugated strepavidin-horseradish peroxidase. Colour develops from the reaction of the peroxidase with hydrogen peroxidase in the presence of tetramethylbenzidine (TMB) substrate. Specimens which are HIV p24Ag positive can be quantitated by setting up a standard curve using serial dilutions of the Antigen Reagent. The assay is not accurate below 30 picograms per ml.
as §2

[2] = single subcutaneous HEP1 injection in the abdominal wall
[3] = oral administration of HEP1 (FIG. 2)
[4] = orally administered HEP1 10 mg daily
[5] = oral HEP1 10 mg daily day 2-22, day 1, before first dose
[6] = oral HEP1 10 mg daily day 2-22, day 7, during treatment
[7] = oral HEP1 10 mg daily day 2-22, day 28, after treatment

CC(C)[C@H](NC(=O)[C@@H](NC(=O)[C@H](CCC(=O)O)NC(=O)[C@H](CCCNC(=N)N)NC(=O)[C@H](CCCNC(=N)N)NC(=O)[C@H](CCCCN)NC(=O)[C@H](CCCCN)NC(=O)[C@H](CCC(=O)O)NC(=O)[C@@H](N)[C@@H](C)O)[C@@H](C)O)C(=O)N[C@@H](CCC(=O)O)C(=O)N[C@@H](CCCNC(=N)N)C(=O)N[C@@H](CCC(=O)O)C(=O)N[C@@H](CCCCN)C(=O)N[C@@H](CCC(=O)O)C(=O)O [HEP1, NH2 ThrGluLysLysArgArgGluThrValGluArgGluLysGluCOOH] (H-TEKKRRETVEREKE-OH)
adverse reactions ([1]; oral HEP1 10 mg daily day 2-22): no adverse reactions
adverse reactions [1, 2]: no other adverse reactions
duration of stinging sensation after injection [1, 2]: approximately 15 minutes
TCID, normalised data (day 1 = 100) (HIV; day 1, before first dose): 100
TCID, normalised data (day 1 = 100) (HIV; day 28, after treatment): 6
HIV infectivity as measured by a TCID assay, course (HIV; [3]): decline
reduction of the infectivity of HIV as measured by TCID (HIV; [4]): 16 X
p24Ag (HIV p24 antigen; [5]): 71 picogram/ml
p24Ag, normalised data (day 1 = 100) (HIV p24 antigen; [5]): 100
p24Ag (HIV p24 antigen; [6]): 44 picogram/ml
p24Ag, normalised data (day 1 = 100) (HIV p24 antigen; [6]): 62
p24Ag (HIV p24 antigen; [7]): 38 picogram/ml
p24Ag, normalised data (day 1 = 100) (HIV p24 antigen; [7]): 54
HIV virus particles as measured by p24Ag levels, course (HIV p24 antigen; [3]): decline
persistence of the effect on p24Ag and TCID after treatment (HIV p24 antigen; [4]): 7 days
reduction of viral load as measured by p24Ag (HIV p24 antigen; [4]): 46%
p24Ag (HIV p24 antigen; single subcutaneous HEP1 dose on day 1, day-91, end of oral study): 38 picogram/ml

— US5773573A, “HIV peptides” (priority 1994, dated 1998)
